According to patent publication EP0887339A1, “Azulene derivatives and medicaments containing them” (BOEHRINGER MANNHEIM GMBH, priority 1997, dated 1998):
pIC50: −log10 of the molar value.

Each compound was assayed against TNF-α (assay: Inhibition of TNFα in culture supernatant of LPS-stimulated peripheral human leukocytes, TNFα-specific enzyme immunoassay). Conditions: Periphere humane Leukozyten, LPS über 22 Std., Kulturüberstand.
Assay type: cell-based
Description: […] humane Leukozyten werden mit LPS über 22 Std. inkubiert. Der Kulturüberstand wird mit einem TNFα spezifischen Enzym-Immuno-Assay untersucht. Durch Vergleich der für die Messproben erhaltenen TNFα-Konzentrationen mit den ungehemmten Proben wird die prozentuale Hemmung fiir die einzelne Probe berechnet. Aus der […]. Der IC50-Wert läßt sich wie folgt ermitteln: v = v0 /(1 + [I] / IC50 ) [formula] • v = […]0 = […] ohne Inhibitor • [I] = […] IC50-Werte, der in den Beispielen beschriebenen Substanzen gegen TNF-α finden sich in der folgenden Tabelle:

| pIC50 | Structure (SMILES) |
| --- | --- |
| 4.82 | CCOC(=O)c1c2ccc(C(C(=O)NC(N)=O)C(=O)OCC)ccc-2c(C(=O)OCC)c1N (centres unmarked) [Beispiel 6, 2-Amino-6-(1-ethoxycarbonyl-2-oxo-2-ureido-ethyl)-azulen-1,3-dicarbonsäurediethylester] |
| 6.80 | CCOC(=O)c1c2ccc(CC(=O)O)ccc-2c(C(=O)OCC)c1N [Beispiel 1, 2-Amino-6-carboxylmethyl-azulen-1,3-dicarbonsäurediethylester] |
| 5.39 | CCOC(=O)c1c2ccc(CC(=O)O)ccc-2c(C(=O)OCC)c1NC(C)=O [Beispiel 4, 2-Acetylamino-6-carboxymethyl-azulen-1,3-dicarbonsäurediethylester] |
| 5.64 | CC(C)(C)OC(=O)c1c2ccc(Br)ccc-2c(C(=O)OC(C)(C)C)c1N [Beispiel 9, 2-Amino-6-bromo-azulen-1,3-dicarbonsäure-di-tert-butylester] |
| 5.10 | CCOC(=O)c1c2cccccc-2c(C(=O)OC(C)(C)C)c1N [Beispiel 8, 2-Amino-azulen-1,3-dicarbonsäure-tert-butyl-ethylester] |
| 5.55 | CC(C)(C)OC(=O)c1c2cccccc-2c(C(=O)OC(C)(C)C)c1N [Beispiel 7, 2-Amino-azulen-1,3-dicarbonsäure-di-tert-butylester] |
| 4.98 | CCOC(=O)c1c2ccc(CC(=O)O)ccc-2c(C(=O)O)c1N [Beispiel 2, 2-Amino-6-carboxylmethyl-azulen-1,3-dicarbonsäuremonoethylester] |
| 6.30 | CC(=O)N(C(C)=O)c1c(C(=O)OC(C)(C)C)c2ccc(Br)ccc-2c1C(=O)OC(C)(C)C [Beispiel 10, 2-Diacetylamino-6-bromo-azulen-1,3-dicarbonsäure-di-tert-butylester] |
| 9.00 | CCOC(=O)c1c2ccc(CC(=O)NO)ccc-2c(C(=O)OCC)c1N [Beispiel 3, 2-Amino-6-hydroxycarbamoylmethyl-azulen-1,3-dicarbonsäurediethylester] |
| 7.70 | CCOC(=O)c1c2ccc(CC(=O)NO)ccc-2c(C(=O)OCC)c1NC(C)=O [Beispiel 5, 2-Acetylamino-6-hydroxycarbamoylmethyl-azulen-1,3-dicarbonsäurediethylester] |

| Structure (SMILES) | pIC50 |
| --- | --- |
| CC(=O)N(C(C)=O)c1c(C(=O)OC(C)(C)C)c2ccc(C(C(=O)OC(C)(C)C)C(=O)OC(C)(C)C)ccc-2c1C(=O)OC(C)(C)C [Beispiel 11, 6-(Bis-tert-butoxycarbonyl-methyl)-2-diacetylamino-azulene-1,3-dicarbonsäure-di-tert-butylester] | 5.38 |
